Assay results: PubChem BioAssay (NCI)
Values joined by “and” are separate entries in the source; they are usually repeats but may differ in a detail not shown here. Equal values may be shown once.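 Values below derive from 48-hour exposures of cells grown in 96-well plates, with endpoints linearly interpolated between the two concentrations bracketing the appropriate inhibition level. At the GI50, growth is halved. TGI: concentration producing complete growth inhibition.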

What was measured:
Assay in all cases: NCI anticancer screen, dose series, 48 h
UO-31 renal = system: UO-31 renal
EKVX NSCLC = system: EKVX NSCLC
HL-60(TB) leukemia = system: HL-60(TB) leukemia
SNB-75 CNS = system: SNB-75 CNS
OVCAR-3 ovarian = system: OVCAR-3 ovarian
SK-MEL-2 melanoma = system: SK-MEL-2 melanoma
SR leukemia = system: SR leukemia
MOLT-4 leukemia = system: MOLT-4 leukemia
OVCAR-8 ovarian = system: OVCAR-8 ovarian
MCF7 breast = system: MCF7 breast

SMILES	TGI (UO-31 renal)	TGI (EKVX NSCLC)	TGI (HL-60(TB) leukemia)	TGI (SNB-75 CNS)	TGI (OVCAR-3 ovarian)	TGI (SK-MEL-2 melanoma)	TGI (SR leukemia)	TGI (MOLT-4 leukemia)	TGI (OVCAR-8 ovarian)	TGI (MCF7 breast)	GI50 (UO-31 renal)	GI50 (EKVX NSCLC)	GI50 (OVCAR-8 ovarian)	GI50 (OVCAR-3 ovarian)	GI50 (SK-MEL-2 melanoma)	GI50 (MCF7 breast)	GI50 (MOLT-4 leukemia)
Cc1cccc2c(=O)cc(-c3ccccc3)[nH]c12	> 100 µM	> 100 µM	> 100 µM	9.26 µM	> 100 µM	> 100 µM	> 100 µM	> 100 µM									
COc1cc(/C=C2\S/C(=N/Nc3nc(-c4ccc(Br)cc4)cs3)NC2=O)cc(OC)c1OC	16.7 µM	63.8 µM		77.2 µM	30.3 µM	35.8 µM		9.51 µM	29.6 µM	> 100 µM							
CC1=C(C)[C@@]2(C)O[C@@]2(C)O[C@@]2(C)O[C@@]12C	> 100 µM	> 100 µM		> 100 µM		> 100 µM	> 100 µM		> 100 µM	> 100 µM							
CCOc1cc2c(cc1O)/C(=N\OC)C[C@@H]1[C@@H]2CC[C@]2(C)[C@@H](O)CC[C@@H]12	> 58.5 µM	> 100 µM		0.21 µM	2.29 µM	4.42 µM	0.0585 µM	26.5 µM	3.91 µM	> 37.6 µM							
CC(C)/C(Cl)=N\OC(=O)Nc1ccc(S(N)(=O)=O)cc1	30.2 µM	32.6 µM		25.4 µM	28.2 µM	34.1 µM	5.17 µM	5.42 µM	32 µM	27.7 µM							
O=c1[nH][nH]c(=O)n1Cc1ccccc1Cn1c(=O)[nH][nH]c1=O	> 100 µM	> 100 µM	> 100 µM	> 100 µM	> 100 µM	> 100 µM		> 100 µM	> 100 µM								
CC(=O)Nc1ccc(-c2nnc(SCC(=O)Nc3ccc([N+](=O)[O-])cc3)o2)cc1	34.6 µM		> 100 µM	27.6 µM	28.1 µM	33.3 µM	> 100 µM	> 100 µM	29.9 µM								
CCCCCCCCCCCOc1ccc(C(=O)C(=O)c2ccc(OCCCCCCCCCCC)c(OCCCCCCCCCCC)c2)cc1OCCCCCCCCCCC	> 100 µM	> 100 µM	> 100 µM	95.7 µM	> 100 µM	> 100 µM		> 100 µM	> 100 µM								
COC(=O)[C@H](Cc1c[nH]c2ccccc12)NP(=O)(O)OCC1C=CC(n2cc(C)c(=O)[nH]c2=O)O1 (some centres not stated)		> 100 µM	> 100 µM	> 100 µM	> 100 µM	> 100 µM		> 100 µM	> 100 µM								
CC(C)C1/C(=N/O)CC(c2ccccc2)N(N=O)C1c1ccccc1 (configuration not stated)	82.9 µM	73.5 µM	86.7 µM	> 100 µM	> 100 µM	73.6 µM		95.6 µM	> 100 µM	> 100 µM							
C(/c1ccco1)=c1/nc(-c2ccccc2)n2c1nc1ccccc12	> 100 µM	6.07 µM	> 100 µM		> 100 µM	> 100 µM	43 µM	33.5 µM	> 100 µM	> 100 µM							
Cc1cn(C2CC(N(O)C(N)=O)C(CO)O2)c(=O)[nH]c1=O (configuration not stated)	> 100 µM				> 100 µM	> 100 µM		> 100 µM	> 100 µM	> 100 µM							
COc1cc([C@@H]2OCC3C(c4ccc5c(c4)OCO5)OCC32)cc(OC)c1OC (some centres not stated)	> 100 µM	> 100 µM	> 100 µM	> 100 µM	> 100 µM	> 100 µM	> 100 µM	> 100 µM	> 100 µM								
COc1cc([C@@H]2c3cc4c(cc3[C@@H](Nc3ccc([N+](=O)[O-])cc3C(=O)c3ccccc3)[C@H]3COC(=O)[C@H]23)OCO4)cc(OC)c1OC		> 100 µM		> 100 µM	> 100 µM	> 100 µM	> 100 µM	> 100 µM	> 100 µM	> 100 µM							
CCCN=C1CCN(Cc2ccccc2)c2ccccc2N1	> 100 µM	> 100 µM	37.3 µM	27.5 µM	> 100 µM	31.6 µM		34.1 µM	32.6 µM								
CCCNC1=C2CC(C)CC(OC)[C@@H](O)[C@H](C)/C=C(\C)C(OC(N)=O)C(OC)/C=C\C=C(/C)C(=O)NC(=CC1=O)C2=O (some centres not stated)	32.2 µM	84.4 µM	2.34 µM and 0.547 µM		28.8 µM	31.4 µM		13.5 µM	32.5 µM	28.5 µM	0.558 µM	16 µM	0.393 µM	0.613 µM	13.1 µM	0.0525 µM	0.492 µM
CC(=O)O[C@H]1C(=O)[C@]2(C)[C@@H](OC(=O)OCCC(O)CO)C[C@H]3OC[C@@]3(OC(C)=O)[C@H]2[C@H](OC(=O)c2ccccc2)[C@]2(O)C[C@H](OC(=O)[C@H](O)[C@@H](NC(=O)c3ccccc3)c3ccccc3)C(C)=C1C2(C)C (some centres not stated)	> 100 µM	> 100 µM	< 0.0106 µM	0.158 µM	0.0932 µM	46.8 µM		12.7 µM		> 35 µM							
CNS(=O)(=O)NNS(=O)(=O)c1ccc2ccccc2c1	> 100 µM	> 100 µM	> 100 µM	> 100 µM	> 100 µM	> 100 µM	> 100 µM	> 100 µM	> 100 µM								
CC1C=C(CCCCCCCCCCCC[C@@H](O)[C@@H]2CC[C@@H]([C@@H]3CC[C@@H](C(O)CCCCCCCCCCCCC4=C[C@H](C)OC4=O)O3)O2)C(=O)O1 (some centres not stated)	> 100 µM	> 100 µM	> 100 µM	> 100 µM	> 100 µM	> 100 µM	> 55 µM	> 100 µM	> 100 µM								
N#CN=C(N(Cc1ccccc1)Cc1ccccc1)N(Cc1ccccc1)Cc1ccccc1	> 100 µM	> 100 µM	83.8 µM	> 100 µM	31.7 µM	> 100 µM		> 100 µM	> 100 µM								
COC(=O)c1cc2c(n1S(=O)(=O)c1ccc(C)cc1)C(=O)C(=O)c1[nH]cc(C(=O)OCc3ccccc3)c1-2	0.685 µM	0.665 µM		0.3 µM	0.0913 µM	0.358 µM	0.802 µM	0.944 µM	0.706 µM	0.174 µM							
C=C(Br)C(C)(Cl)CCC(Br)C(C)(C)Cl (configuration not stated)	> 100 µM	> 100 µM	80.6 µM		35.6 µM		> 100 µM	> 100 µM	> 100 µM	> 100 µM							
